Key:
[1] = Cytotoxicity against human KB-3-1 cells by resazurin reduction assay; assay type: functional, cell-based
[2] = Cytotoxicity against human KBV1 cells by resazurin reduction assay; assay type: functional, cell-based; conditions: KB-V1
[3] = Binding affinity to integrin in human WM-115 cells after 30 mins by immobilized vitronectin-based competitive cell adhesion assay

IC50 [3] [nM] | SMILES | IC50 [1] [nM] | IC50 [2] [nM]
 | C=CCOC(=O)C[C@@H]1CNC(=O)[C@@H](Cc2ccc(OC)c(Cl)c2)NC(=O)/C=C/C[C@@H]([C@H](C)[C@H]2O[C@@H]2c2ccccc2)OC(=O)[C@H](CC(C)C)OC1=O | 0.0961 | 2.7
 | C=CCOC(=O)C[C@H]1CNC(=O)[C@@H](Cc2ccc(OC)c(Cl)c2)NC(=O)/C=C/C[C@@H]([C@H](C)[C@H]2O[C@@H]2c2ccccc2)OC(=O)[C@H](CC(C)C)OC1=O | 0.0083 | 6
 | C=CCOC(=O)CCC[C@@H]1CNC(=O)[C@@H](Cc2ccc(OC)c(Cl)c2)NC(=O)/C=C/C[C@@H]([C@H](C)[C@H]2O[C@@H]2c2ccccc2)OC(=O)[C@H](CC(C)C)OC1=O | 0.433 | 45.2
 | C=CCOCCC[C@@H]1CNC(=O)[C@@H](Cc2ccc(OC)c(Cl)c2)NC(=O)/C=C/C[C@@H]([C@H](C)[C@H]2O[C@@H]2c2ccccc2)OC(=O)[C@H](CC(C)C)OC1=O | 0.149 | 26.6
 | C=CCOCCC[C@H]1CNC(=O)[C@@H](Cc2ccc(OC)c(Cl)c2)NC(=O)/C=C/C[C@@H]([C@H](C)[C@H]2O[C@@H]2c2ccccc2)OC(=O)[C@H](CC(C)C)OC1=O | 0.0527 | 38
 | COc1ccc(C[C@H]2NC(=O)/C=C/C[C@@H]([C@H](C)[C@H]3O[C@@H]3c3ccccc3)OC(=O)[C@H](CC(C)C)OC(=O)[C@H](CCN=[N+]=[N-])CNC2=O)cc1Cl | 0.0216 | 2.1
 | COc1ccc(C[C@H]2NC(=O)/C=C/C[C@@H]([C@H](C)[C@H]3O[C@@H]3c3ccccc3)OC(=O)[C@H](CC(C)C)OC(=O)[C@@H](CCN=[N+]=[N-])CNC2=O)cc1Cl | 0.0546 | 14.1
 | COc1ccc(C[C@H]2NC(=O)/C=C/C[C@@H]([C@H](C)[C@H]3O[C@@H]3c3ccccc3)OC(=O)[C@H](CC(C)C)OC(=O)[C@H](CCCN=[N+]=[N-])CNC2=O)cc1Cl | 0.112 | 18.4
 | COc1ccc(C[C@H]2NC(=O)/C=C/C[C@@H]([C@H](C)[C@H]3O[C@@H]3c3ccccc3)OC(=O)[C@H](CC(C)C)OC(=O)[C@@H](CCCN=[N+]=[N-])CNC2=O)cc1Cl | 11.5 | 114
 | COc1ccc(C[C@H]2NC(=O)/C=C/C[C@@H]([C@H](C)[C@H]3O[C@@H]3c3ccccc3)OC(=O)[C@H](CC(C)C)OC(=O)[C@H](CCCCN=[N+]=[N-])CNC2=O)cc1Cl | 0.249 | 23.5
 | COc1ccc(C[C@H]2NC(=O)/C=C/C[C@@H]([C@H](C)[C@H]3O[C@@H]3c3ccccc3)OC(=O)[C@H](CC(C)C)OC(=O)[C@H](CCCn3cc(C(C)(C)O)nn3)CNC2=O)cc1Cl | 0.101 | 411
 | COc1ccc(C[C@H]2NC(=O)/C=C/C[C@@H]([C@H](C)[C@H]3O[C@@H]3c3ccccc3)OC(=O)[C@H](CC(C)C)OC(=O)[C@@H](CCCn3cc(C(C)(C)O)nn3)CNC2=O)cc1Cl | 0.312 | 3020
 | COc1ccc(C[C@H]2NC(=O)/C=C/C[C@@H]([C@H](C)[C@H]3O[C@@H]3c3ccccc3)OC(=O)[C@H](CC(C)C)OC(=O)[C@@H](CCCn3cc(C[C@@H]4NC(=O)[C@@H](Cc5ccccc5)NC(=O)[C@H](CC(=O)O)NC(=O)CNC(=O)[C@H](CCCNC(=N)N)NC4=O)nn3)CNC2=O)cc1Cl | 55.8 | 1800
 | COc1ccc(C[C@H]2NC(=O)/C=C/C[C@@H]([C@H](C)[C@H]3O[C@@H]3c3ccccc3)OC(=O)[C@H](CC(C)C)OC(=O)C(C)(C)CNC2=O)cc1Cl [CRYPTOPHYCIN 52] | 0.0155 | 0.26
500 | CC(C)[C@@H]1NC(=O)[C@@H](Cc2ccccc2)NC(=O)[C@H](CC(=O)O)NC(=O)CNC(=O)[C@H](CCCN=C(N)N)NC1=O [CYCLORGDFV] |  | 

From ChEMBL document CHEMBL2321811, “Conjugates of modified cryptophycins and RGD-peptides enter target cells by endocytosis” (J Med Chem, 2013)
